Data reported in patent publication EP3922633B1, “METHOD FOR EXTRACTING PYRROLIZIDINE ALKALOIDS” (priority 2020, dated 2021).
Like-named read-outs stand apart in the source and are kept apart here.

How the values were obtained:
rat = details: cited from earlier work
[1] = Presence or absence of pyrrolizidine alkaloid signals (UPLC-HRMS) in doped lemon, orange and eucalyptus essential oils after hydrodistillation; type: physicochemical; details: for signaux dans la phase organique recueillie après hydrodistillation: huiles essentielles de citron, d'orange et d'eucalyptus dopées jusqu'à 100 ppm, 2 h hydrodistillation, UPLC-HRMS/TOF; for profils UPLC-MS ciblés: presence in huile essentielle avec standards et distillée: huile essentielle de citron, likewise essences d'orange et d'eucalyptus (figure 1, figure 2)
Experimental: (§1) Dans un ballon de 500 mL, on introduit 300 mL d'eau distillée, un barreau magnétique, quelques pierres ponces et une quantité pesée d'échantillon entre 15 et 30 g.
(§2) Le ballon est alors raccordé à un appareil de type Clevenger et placé dans un bain d'huile chauffant.
(§3) On ajoute 10 mL d'eau distillée et 4 à 5 mL de pentane afin de remplir le séparateur.
(§4) On ouvre l'arrivée d'eau pour le réfrigérant et on porte à reflux pendant deux heures.
(§5) On arrête alors le chauffage et on laisse décanter. La phase organique et la phase aqueuse décantent dans le séparateur et sont recueillies.
(§6) […]. Conditions HR-TOF-MS : Les analyses ont été effectuées sur un système Waters XEVO G2 TOF. Conditions de source ESI : tension capillaire : 0,5 kV, tension de cône : 45 V, cône d'extraction : 4 V, température de source : 120 °C, température de désolvatation : 400 °C, débit de gaz : 10 L/h, débit de gaz de désolvatation : 1200 L/h. Les analyses ont été effectuées en mode positif. Le spectromètre de masse a été étalonné avec du formiate de sodium pour une gamme de masse allant de 50 à 1200 Da. La Leucine-Enképhaline (lockmass) est le standard utilisé pour corriger les masses. Les deux masses caractéristiques de la Leucine-Enképhaline ont été vérifiées (278,1141; 556,2771). Les acquisitions ont été réalisées en mode MSE en utilisant l'argon comme gaz de collision. Fragmentation : Le mode MSE permet l'acquisition simultanée de spectres de masse à l'énergie de collision faible et élevée, le premier permettant d'obtenir un ion parent, le dernier de produire des ions fragments.
(§7) Après dilution des extraits d'huile essentielle dans du méthanol, les alcaloïdes pyrrolizidiniques sont chromatographiés par système RP-UPLC, en mode gradient d'élution, détectés et identifiés par spectrométrie de masse et quantifiés par une méthode d'étalonnage externe.
(§8) Dans une fiole jaugée de 20 mL, on pèse exactement 1 g (Pe) de l'échantillon et on ajuste avec du méthanol. La solution est homogénéisée pendant 3 min avec un bain à ultrasons, puis filtrée à l'aide d'une seringue sur un filtre en PTFE de 0,25 µm, puis transférée dans un flacon d'injection.
Afin de démontrer le principe de l'invention, une étude quantitative destinée à montrer la présence ou l'absence d'alcaloïdes pyrrolizidiniques dans des échantillons d'huile essentielle enrichis en alcaloïdes pyrrolizidiniques a été réalisée avant et après hydrodistillation.
Dans cette étude, on a utilisé des alcaloïdes pyrrolizidiniques disponibles commercialement et représentant deux classes précédemment décrites de type II et IV, à savoir : alcaloïde type cyclique (classe la plus représentée) pour la sénécionine, sénécionine-N-oxyde [13268-67-2], rétrorsine, rétrorsine-N-oxyde [15503-86-3], jacobine [3870-67-3], jacobine-N-oxyde [38710-25-7], sénéciphylline, sénéciphylline-N-oxyde [38710-26-8], et alcaloïde type mono-ester pour la lycopsamine [10285-07-1], lycopsamine-N-oxyde [95462-15-0], intermédine [10285-06-0], intermédine-N-oxyde [95462-14-9].
(§9) Trois huiles essentielles de citron, d'orange et d'eucalyptus, dopées jusqu'à 100 ppm de chacun des alcaloïdes pyrrolizidiniques et de leurs oxydes respectifs, ont été hydrodistillées séparément pendant deux heures selon le protocole décrit à l'exemple 1. L'expérimentation est réalisée en duplicat.
(§10) Avant et après hydrodistillation, les phases organique et aqueuse sont séparées et injectées en UPLC-HRMS/TOF.

[2] = Hydrodistillation of lemon essential oil doped with pyrrolizidine alkaloids; alkaloids assayed in distillate and aqueous phase by UPLC-HRMS/TOF; type: physicochemical; details: for φ Aqueuse (résidu de distillation) CT [ppm]: Concentration théorique; for φ Aqueuse (résidu de distillation) C [ppm] / φ Organique (distillat) C [ppm]: after 2 h hydrodistillation; for φ Organique (distillat) C [ppm]: LOQ : 2 ppb
Experimental: as §1, §2, §3, §4, §5, §6, §7
Des solutions standards d'alcaloïdes pyrrolizidiniques sont préparées comme suit : Dans une fiole jaugée de 100 mL (Vf), on pèse exactement 10 mg (Ms) des substances étalons et on ajuste avec du méthanol. Les solutions sont homogénéisées avec un bain à ultrasons pendant 3 min.
La concentration de la solution standard est donnée par l'équation suivante : C (mg/mL) = (Ms×Pu)/(100×Vf) [formula] • Ms = Poids de la substance standard • Pu = Pureté de la substance étalon en pourcentage
Ensuite, cette solution mère est diluée jusqu'à obtenir les concentrations appropriées pour la sensibilité du détecteur.
as §8
Si nécessaire, cette solution doit être successivement diluée pour tomber dans une plage de linéarité appropriée du détecteur.
as §9, §10

[3] = administrés régulièrement par voie orale
[4] = Tableau 3, Huile essentielle de Citron dopée, (duplicate 2)
[5] = Tableau 3, Huile essentielle de Citron dopée, duplicate 1
[6] = Tableau 4, Huile essentielle de Citron dopée (as titled), (duplicate 2)
[7] = Tableau 4, Huile essentielle de Citron dopée (as titled), duplicate 1

C/C=C1/C[C@@H](C)[C@@](C)(O)C(=O)OC/C2=C/CN(C)CC[C@@H](OC1=O)C2=O [senkirkine]
tumeurs hépatiques (rat; [3]): provoquer des tumeurs hépatiques

C=C1C/C(=C/C)C(=O)O[C@@H]2CCN3CC=C(COC(=O)[C@]1(C)O)[C@H]23 [séneciphylline, sénéciphylline]
signaux dans la phase organique recueillie après hydrodistillation [1]: absence des signaux

C/C=C1/C[C@@H](C)[C@](O)(CO)C(=O)OCC2=CC[N@@+]3([O-])CC[C@@H](OC1=O)[C@@H]23 [Rétrorsine-N-oxyde]
φ Aqueuse (résidu de distillation) CT [ppm] [2, 4]: 0,621 ppm
φ Aqueuse (résidu de distillation) CT [ppm] [2, 5]: 0,662 ppm
φ Aqueuse (résidu de distillation) C [ppm] [2, 4]: 0,605 ppm
φ Organique (distillat) C [ppm] [2, 4]: < LoQ
φ Aqueuse (résidu de distillation) C [ppm] [2, 5]: 0,691 ppm
φ Organique (distillat) C [ppm] [2, 5]: < LoQ
φ Aqueuse (résidu de distillation) CT [ppm] [2, 6]: 0.593 ppm
φ Aqueuse (résidu de distillation) CT [ppm] [2, 7]: 0.457 ppm
φ Aqueuse (résidu de distillation) C [ppm] [2, 6]: 0.612 ppm
φ Organique (distillat) C [ppm] [2, 6]: < LoQ
φ Aqueuse (résidu de distillation) C [ppm] [2, 7]: 0.678 ppm
φ Organique (distillat) C [ppm] [2, 7]: < LoQ
profils UPLC-MS ciblés: presence in huile essentielle avec standards et distillée [1]: absentes
signaux dans la phase organique recueillie après hydrodistillation [1]: absence des signaux

C/C=C(\C)C(=O)O[C@@H]1CCN2CC=C(COC(=O)[C@](O)(C(C)C)[C@H](C)O)[C@H]12 [symphytine]
tumeurs hépatiques (rat; [3]): provoquer des tumeurs hépatiques

CC(C)[C@@](O)(C(=O)OCC1=CC[N+]2([O-])CC[C@@H](O)[C@@H]12)[C@@H](C)O (stereo partly drawn) [intermédine-N-oxyde]
signaux dans la phase organique recueillie après hydrodistillation [1]: absence des signaux

C/C=C1/C[C@@H](C)[C@@](C)(O)C(=O)OCC2=CC[N+]3([O-])CC[C@@H](OC1=O)[C@@H]23 (stereo partly drawn) [sénécionine-N-oxyde]
signaux dans la phase organique recueillie après hydrodistillation [1]: absence des signaux

CC(C)[C@@](O)(C(=O)OCC1=CC[N+]2([O-])CC[C@@H](O)[C@@H]12)[C@H](C)O (stereo partly drawn) [Lycopsamine-N-oxyde]
φ Aqueuse (résidu de distillation) CT [ppm] [2, 6]: 0.030 ppm
φ Aqueuse (résidu de distillation) CT [ppm] [2, 7]: 0.028 ppm
φ Aqueuse (résidu de distillation) C [ppm] [2, 6]: 0.027 ppm
φ Organique (distillat) C [ppm] [2, 6]: < LoQ
φ Aqueuse (résidu de distillation) C [ppm] [2, 7]: 0.024 ppm
φ Organique (distillat) C [ppm] [2, 7]: < LoQ
signaux dans la phase organique recueillie après hydrodistillation [1]: absence des signaux

C/C=C1\C[C@@H](C)[C@](O)(CO)C(=O)OCC2=CCN3CC[C@@H](OC1=O)[C@@H]23 [Rétrorsine]
φ Aqueuse (résidu de distillation) CT [ppm] [2, 4]: 0,868 ppm
φ Aqueuse (résidu de distillation) CT [ppm] [2, 5]: 0,806 ppm
φ Aqueuse (résidu de distillation) C [ppm] [2, 4]: 0,839 ppm
φ Organique (distillat) C [ppm] [2, 4]: < LoQ
φ Aqueuse (résidu de distillation) C [ppm] [2, 5]: 0,810 ppm
φ Organique (distillat) C [ppm] [2, 5]: < LoQ
φ Aqueuse (résidu de distillation) CT [ppm] [2, 6]: 0.828 ppm
φ Aqueuse (résidu de distillation) CT [ppm] [2, 7]: 0.797 ppm
φ Aqueuse (résidu de distillation) C [ppm] [2, 6]: 0.711 ppm
φ Organique (distillat) C [ppm] [2, 6]: < LoQ
φ Aqueuse (résidu de distillation) C [ppm] [2, 7]: 0.663 ppm
φ Organique (distillat) C [ppm] [2, 7]: < LoQ
profils UPLC-MS ciblés: presence in huile essentielle avec standards et distillée [1]: absentes
signaux dans la phase organique recueillie après hydrodistillation [1]: absence des signaux
tumeurs hépatiques (rat; [3]): provoquer des tumeurs hépatiques

C/C=C1/C[C@@H](C)[C@@](C)(O)C(=O)OCC2=CCN3CC[C@@H](OC1=O)[C@@H]23 [sénécionine]
signaux dans la phase organique recueillie après hydrodistillation [1]: absence des signaux

C[C@@H]1C[C@@]2(O[C@H]2C)C(=O)O[C@@H]2CC[N+]3([O-])CC=C(COC(=O)[C@]1(C)O)[C@H]23 (stereo partly drawn) [jacobine-N-oxyde]
signaux dans la phase organique recueillie après hydrodistillation [1]: absence des signaux

C[C@H]1C(=O)O[C@@H]2CCN3CC=C(COC(=O)[C@](C)(O)[C@]1(C)O)[C@H]23 [monocrotaline]
tumeurs hépatiques (rat; in vivo): provoquer des tumeurs hépatiques

CC(C)[C@](O)(C(=O)OCC1=CCN2CC[C@@H](O)[C@@H]12)[C@@H](C)O (stereo in doubt) [Lycopsamine]
φ Aqueuse (résidu de distillation) CT [ppm] [2, 4]: 0,626 ppm
φ Aqueuse (résidu de distillation) CT [ppm] [2, 5]: 0,656 ppm
φ Aqueuse (résidu de distillation) C [ppm] [2, 4]: 0,698 ppm
φ Organique (distillat) C [ppm] [2, 4]: < LoQ
φ Aqueuse (résidu de distillation) C [ppm] [2, 5]: 0,678 ppm
φ Organique (distillat) C [ppm] [2, 5]: < LoQ
φ Aqueuse (résidu de distillation) CT [ppm] [2, 6]: 0.597 ppm
φ Aqueuse (résidu de distillation) CT [ppm] [2, 7]: 0.550 ppm
φ Aqueuse (résidu de distillation) C [ppm] [2, 6]: 0.621 ppm
φ Organique (distillat) C [ppm] [2, 6]: < LoQ
φ Aqueuse (résidu de distillation) C [ppm] [2, 7]: 0.588 ppm
φ Organique (distillat) C [ppm] [2, 7]: < LoQ
profils UPLC-MS ciblés: presence in huile essentielle avec standards et distillée [1]: absentes
signaux dans la phase organique recueillie après hydrodistillation [1]: absence des signaux

C[C@@H]1C[C@@]2(O[C@H]2C)C(=O)O[C@@H]2CCN3CC=C(COC(=O)[C@]1(C)O)[C@H]23 [jacobine]
signaux dans la phase organique recueillie après hydrodistillation [1]: absence des signaux

C=C1C/C(=C/C)C(=O)O[C@@H]2CC[N+]3([O-])CC=C(COC(=O)[C@]1(C)O)[C@H]23 (stereo partly drawn) [séneciphylline-N-oxyde, sénéciphylline-N-oxyde]
signaux dans la phase organique recueillie après hydrodistillation [1]: absence des signaux
